We go through 14 compounds from ChEMBL document CHEMBL5329181, “Green synthesis and anti-biofilm activities of 3,5-disubstituted isoxazoline/isoxazole-linked secondary sulfonamide derivatives on Pseudomonas aeruginosa” (2023).

Assay [1] concerns Pseudomonas aeruginosa. The experiment in a line: Antibiofilm activity against Pseudomonas aeruginosa assessed as inhibition of biofilm formation at 200 uM incubated for 24 hrs by crystal violet staining based assay. The assay is classed as functional, organism-based.
The test system of assay [2] is Pseudomonas aeruginosa. The experiment in a line: Destabilization of mature biofilms in Pseudomonas aeruginosa assessed as biofilm dispersion at 200 uM incubated for 24 hrs by crystal violet staining based assay relative to control. The assay is classed as functional.
The test system of assay [3] is Pseudomonas aeruginosa. The experiment in a line: Antibacterial activity against Pseudomonas aeruginosa H103 assessed as reduction in bacterial growth at 200 uM measured every 15 min for 24 hrs by optical density based analysis. The assay is classed as functional, organism-based.

Molecules are shown by their SMILES. Active and inactive are the calls of the source. The calls are words filed in the database; no cut-off is given here.

In the case of `C=CCNS(=O)(=O)c1ccccc1C(=O)NN`, the outcome in assay [1] and in assay [3] was inactive. Moreover, in assay [2], the Activity amounted to 30%.

In the case of `NNC(=O)c1ccccc1S(=O)(=O)NCC1CC(c2ccc(Cl)cc2)=NO1` (stereo not drawn), the outcome in assay [1], in assay [2] and in assay [3] was inactive.

Consider `Cc1ccc(C2=NOC(CNS(=O)(=O)c3ccccc3C(=O)NN)C2)cc1` (stereo not drawn), for which the outcome in assay [1] and in assay [3] was inactive.

Turning to `NNC(=O)c1ccccc1S(=O)(=O)NCC1CC(c2cccc([N+](=O)[O-])c2)=NO1` (stereo not drawn), the result in assay [1] and in assay [3] was inactive.

For the compound `CN[C@@H]1[C@@H](O[C@H]2O[C@H](CO)[C@@H](N)[C@H](O)[C@H]2O)O[C@H]2C[C@@H](N)[C@@H](O[C@H]3[C@H](O)[C@@H](O)[C@H](N)C[C@@H]3N)O[C@@H]2[C@@H]1O`, the Activity in assay [2] was 50%.

Turning to `NNC(=O)c1ccccc1S(=O)(=O)NCc1cc(-c2ccc(Br)cc2)no1`, the outcome in assay [1] and in assay [3] was inactive.

Consider `COc1ccc(C2=NOC(CNS(=O)(=O)c3ccccc3C(=O)NN)C2)cc1` (stereo not drawn), for which the result in assay [1] and in assay [3] was inactive. Besides, in assay [2], the Activity was found to be 50%.

For the compound `NNC(=O)c1ccccc1S(=O)(=O)NCC1CC(c2ccccc2)=NO1` (stereo not drawn), the outcome in assay [1] and in assay [3] was inactive.

Take `NNC(=O)c1ccccc1S(=O)(=O)NCC1CC(c2ccc(Cl)cc2Cl)=NO1` (stereo not drawn): the result in assay [1] and in assay [3] was inactive. Besides, the Activity in assay [2] was 50%.

With `NNC(=O)c1ccccc1S(=O)(=O)NCC1CC(c2ccc(Cl)c(Cl)c2)=NO1` (stereo not drawn), the result in assay [1] and in assay [3] was inactive.

`C#CCNS(=O)(=O)c1ccccc1C(=O)NN`: the result in assay [1] and in assay [3] was inactive.

On to `NNC(=O)c1ccccc1S(=O)(=O)NCc1cc(-c2ccc(Cl)cc2Cl)no1`, for which the outcome in assay [1] and in assay [3] was inactive. Besides, the Activity in assay [2] worked out at 50%.

As for `NNC(=O)c1ccccc1S(=O)(=O)NCC1CC(c2ccc(Br)cc2)=NO1` (stereo not drawn), the result in assay [1] and in assay [3] was inactive.

For `NNC(=O)c1ccccc1S(=O)(=O)NCC1CC(c2ccccc2Cl)=NO1` (stereo not drawn), the outcome in assay [1], in assay [2] and in assay [3] was inactive.
